Measurements as given in PubChem BioAssay AID1745844 (Carcinogenic Potency Database (CPDB), 2022).
Calls of active or inactive are those of the source. The rule behind the calls is not given here.

System: rodent lifetime carcinogenesis bioassay, tumor incidence TD50
Assay: chronic cancer bioassays in animals – CPDB, compiled studies (AID 1745844)
Conditions: for TD50: in drinking water

For `Cc1cc(-c2ccc(N)c(C)c2)ccc1N`, the TD50 (mouse, strain BALB/cStCrlfC3Hf/Nctr, females, site: lung, lesion: adenocarcinoma, dosed 52 weeks, study length 52 weeks) was 147 mg/kg/day, the TD50 (mouse, strain BALB/cStCrlfC3Hf/Nctr, females, site: lung, lesion: adenocarcinoma, dosed 78 weeks, study length 78 weeks) was 168 mg/kg/day and the TD50 (mouse, strain BALB/cStCrlfC3Hf/Nctr, females, site: lung, lesion: several types, types named in the paper, dosed 52 weeks, study length 52 weeks) was 28.1 mg/kg/day. It also gave a TD50 (mouse, strain BALB/cStCrlfC3Hf/Nctr, females, site: lung, lesion: several types, types named in the paper, dosed 78 weeks, study length 78 weeks) of 295 mg/kg/day, a TD50 (mouse, strain BALB/cStCrlfC3Hf/Nctr, males, site: lung, lesion: adenocarcinoma, dosed 52 weeks, study length 52 weeks) of 123 mg/kg/day and a TD50 (mouse, strain BALB/cStCrlfC3Hf/Nctr, males, site: lung, lesion: adenocarcinoma, dosed 112 weeks, study length 112 weeks) of 50.1 mg/kg/day. For the same compound, the TD50 (mouse, strain BALB/cStCrlfC3Hf/Nctr, males, site: lung, lesion: several types, types named in the paper, dosed 52 weeks, study length 52 weeks) was 684 mg/kg/day, the TD50 (mouse, strain BALB/cStCrlfC3Hf/Nctr, males, site: lung, lesion: several types, types named in the paper, dosed 78 weeks, study length 78 weeks) was 423 mg/kg/day and the TD50 (mouse, strain BALB/cStCrlfC3Hf/Nctr, males, site: lung, lesion: several types, types named in the paper, dosed 112 weeks, study length 112 weeks) was 28.6 mg/kg/day. The TD50 (rat, strain Fischer 344, females, site: Zymbal's gland, lesion: adenoma + adenoma, bilateral + carcinoma + carcinoma, bilateral, dosed 60 weeks, study length 60 weeks) was 1.27 mg/kg/day, the TD50 (rat, strain Fischer 344, females, site: Zymbal's gland, lesion: adenoma + adenoma, bilateral, dosed 60 weeks, study length 60 weeks) was 3.08 mg/kg/day and the TD50 (rat, strain Fischer 344, females, site: Zymbal's gland, lesion: carcinoma + carcinoma, bilateral, dosed 60 weeks, study length 60 weeks) was 2 mg/kg/day. It also gave a TD50 (rat, strain Fischer 344, females, site: all sites, lesion: mononuclear-cell leukemia, dosed 60 weeks, study length 60 weeks) of 6.46 mg/kg/day, a TD50 (rat, strain Fischer 344, females, site: any site (literature study), lesion: several types, types named in the paper, dosed 60 weeks, study length 60 weeks) of 0.462 mg/kg/day and a TD50 (rat, strain Fischer 344, females, site: brain, lesion: astrocytoma, malignant + malignant glioma + meningioma, malignant, dosed 60 weeks, study length 60 weeks) of 15.4 mg/kg/day. It also gave a TD50 (rat, strain Fischer 344, females, site: clitoral gland + colon + duodenum + ileum + jejunum + liver + lung + mammary gland + pharynx + rectum + skin + tongue + Zymbal's gland, lesion: adenoma + adenoma, bilateral + carcinoma + carcinoma, bilateral + adenocarcinoma + adenomatous polyp + mucinous adenocarcinoma + mucin, dosed 60 weeks, study length 60 weeks) of 0.418 mg/kg/day, a TD50 (rat, strain Fischer 344, females, site: clitoral gland, lesion: adenoma + adenoma, bilateral + carcinoma + carcinoma, bilateral, dosed 60 weeks, study length 60 weeks) of 0.847 mg/kg/day and a TD50 (rat, strain Fischer 344, females, site: clitoral gland, lesion: adenoma + adenoma, bilateral, dosed 60 weeks, study length 60 weeks) of 1.31 mg/kg/day. It also gave a TD50 (rat, strain Fischer 344, females, site: clitoral gland, lesion: carcinoma + carcinoma, bilateral, dosed 60 weeks, study length 60 weeks) of 2.58 mg/kg/day, a TD50 (rat, strain Fischer 344, females, site: colon + rectum, lesion: adenocarcinoma + adenomatous polyp, dosed 60 weeks, study length 60 weeks) of 6.65 mg/kg/day and a TD50 (rat, strain Fischer 344, females, site: colon + rectum, lesion: adenomatous polyp, dosed 60 weeks, study length 60 weeks) of 7.11 mg/kg/day. For the same compound, the TD50 (rat, strain Fischer 344, females, site: duodenum + ileum + jejunum, lesion: adenocarcinoma + adenomatous polyp + mucinous adenocarcinoma + mucinous cystadenocarcinoma, dosed 60 weeks, study length 60 weeks) was 11 mg/kg/day, the TD50 (rat, strain Fischer 344, females, site: duodenum + ileum + jejunum, lesion: adenocarcinoma + mucinous adenocarcinoma + mucinous cystadenocarcinoma, dosed 60 weeks, study length 60 weeks) was 15.4 mg/kg/day and the TD50 (rat, strain Fischer 344, females, site: liver, lesion: hepatocellular adenoma + hepatocellular carcinoma + neoplastic nodule, dosed 60 weeks, study length 60 weeks) was 6.97 mg/kg/day. It also gave a TD50 (rat, strain Fischer 344, females, site: liver, lesion: hepatocellular carcinoma + neoplastic nodule, dosed 60 weeks, study length 60 weeks) of 6.97 mg/kg/day, a TD50 (rat, strain Fischer 344, females, site: liver, lesion: neoplastic nodule, dosed 60 weeks, study length 60 weeks) of 7.62 mg/kg/day and a TD50 (rat, strain Fischer 344, females, site: lung, lesion: alveolar/bronchiolar adenoma + alveolar/bronchiolar carcinoma, dosed 60 weeks, study length 60 weeks) of 11.9 mg/kg/day. For the same compound, the TD50 (rat, strain Fischer 344, females, site: lung, lesion: alveolar/bronchiolar adenoma, dosed 60 weeks, study length 60 weeks) was 13.6 mg/kg/day, the TD50 (rat, strain Fischer 344, females, site: mammary gland, lesion: adenocarcinoma + fibroadenoma, dosed 60 weeks, study length 60 weeks) was 5.77 mg/kg/day and the TD50 (rat, strain Fischer 344, females, site: mammary gland, lesion: adenocarcinoma, dosed 60 weeks, study length 60 weeks) was 8.33 mg/kg/day. The TD50 (rat, strain Fischer 344, females, site: pharynx + tongue, lesion: squamous-cell carcinoma + squamous-cell papilloma, dosed 60 weeks, study length 60 weeks) was 3.2 mg/kg/day, the TD50 (rat, strain Fischer 344, females, site: pharynx + tongue, lesion: squamous-cell carcinoma, dosed 60 weeks, study length 60 weeks) was 11.8 mg/kg/day and the TD50 (rat, strain Fischer 344, females, site: pharynx + tongue, lesion: squamous-cell papilloma, dosed 60 weeks, study length 60 weeks) was 4.26 mg/kg/day. The TD50 (rat, strain Fischer 344, females, site: skin, lesion: basal-cell adenoma + basal-cell carcinoma, dosed 60 weeks, study length 60 weeks) was 3.8 mg/kg/day, the TD50 (rat, strain Fischer 344, females, site: skin, lesion: basal-cell adenoma, dosed 60 weeks, study length 60 weeks) was 5.77 mg/kg/day and the TD50 (rat, strain Fischer 344, females, site: skin, lesion: basal-cell carcinoma, dosed 60 weeks, study length 60 weeks) was 11.6 mg/kg/day. For the same compound, the TD50 (rat, strain Fischer 344, females, site: skin, lesion: squamous-cell carcinoma + squamous-cell papilloma, dosed 60 weeks, study length 60 weeks) was 3.17 mg/kg/day, the TD50 (rat, strain Fischer 344, females, site: skin, lesion: squamous-cell carcinoma, dosed 60 weeks, study length 60 weeks) was 5.56 mg/kg/day and the TD50 (rat, strain Fischer 344, females, site: skin, lesion: squamous-cell papilloma, dosed 60 weeks, study length 60 weeks) was 7.06 mg/kg/day. It also gave a TD50 (rat, strain Fischer 344, males, site: Zymbal's gland, lesion: adenoma + adenoma, bilateral + carcinoma + carcinoma, bilateral, dosed 58 weeks, study length 60 weeks) of 1.12 mg/kg/day, a TD50 (rat, strain Fischer 344, males, site: Zymbal's gland, lesion: adenoma + adenoma, bilateral, dosed 58 weeks, study length 60 weeks) of 2.38 mg/kg/day and a TD50 (rat, strain Fischer 344, males, site: Zymbal's gland, lesion: carcinoma + carcinoma, bilateral, dosed 58 weeks, study length 60 weeks) of 1.93 mg/kg/day. It also gave a TD50 (rat, strain Fischer 344, males, site: adrenal medulla, lesion: pheochromocytoma, benign, dosed 58 weeks, study length 60 weeks) of 10.6 mg/kg/day, a TD50 (rat, strain Fischer 344, males, site: any site (literature study), lesion: several types, types named in the paper, dosed 58 weeks, study length 60 weeks) of 0.334 mg/kg/day and a TD50 (rat, strain Fischer 344, males, site: brain, lesion: glioma malignant, focal, mild + malignant glioma + meningioma, malignant, dosed 58 weeks, study length 60 weeks) of 26.1 mg/kg/day. The TD50 (rat, strain Fischer 344, males, site: cecum + colon + duodenum + ileum + jejunum + large intestine + liver + lung + multiple organs + pharynx + preputial gland + rectum + skin + tongue, lesion: adenomatous polyp + adenocarcinoma + mucinous cystadenocarcinoma + hepatocellular carcinoma + neoplastic nodule + alveolar/bronchi, dosed 58 weeks, study length 60 weeks) was 0.346 mg/kg/day, the TD50 (rat, strain Fischer 344, males, site: cecum + colon + large intestine + rectum, lesion: adenomatous polyp + adenocarcinoma + mucinous cystadenocarcinoma, dosed 58 weeks, study length 60 weeks) was 3.76 mg/kg/day and the TD50 (rat, strain Fischer 344, males, site: cecum + colon + rectum, lesion: adenomatous polyp, dosed 58 weeks, study length 60 weeks) was 4.87 mg/kg/day. For the same compound, the TD50 (rat, strain Fischer 344, males, site: colon + large intestine + rectum, lesion: adenocarcinoma + mucinous cystadenocarcinoma, dosed 58 weeks, study length 60 weeks) was 14.4 mg/kg/day, the TD50 (rat, strain Fischer 344, males, site: duodenum + ileum + jejunum, lesion: mucinous cystadenocarcinoma + adenocarcinoma + adenomatous polyp, dosed 58 weeks, study length 60 weeks) was 6.99 mg/kg/day and the TD50 (rat, strain Fischer 344, males, site: duodenum + ileum + jejunum, lesion: mucinous cystadenocarcinoma + adenocarcinoma, dosed 58 weeks, study length 60 weeks) was 7.79 mg/kg/day. For the same compound, the TD50 (rat, strain Fischer 344, males, site: liver, lesion: hepatocellular adenoma + hepatocellular carcinoma + neoplastic nodule, dosed 58 weeks, study length 60 weeks) was 0.898 mg/kg/day, the TD50 (rat, strain Fischer 344, males, site: liver, lesion: hepatocellular carcinoma + neoplastic nodule, dosed 58 weeks, study length 60 weeks) was 0.898 mg/kg/day and the TD50 (rat, strain Fischer 344, males, site: liver, lesion: hepatocellular carcinoma, dosed 58 weeks, study length 60 weeks) was 2.76 mg/kg/day. For the same compound, the TD50 (rat, strain Fischer 344, males, site: liver, lesion: neoplastic nodule, dosed 58 weeks, study length 60 weeks) was 1.12 mg/kg/day, the TD50 (rat, strain Fischer 344, males, site: lung, lesion: alveolar/bronchiolar adenoma + alveolar/bronchiolar carcinoma, dosed 58 weeks, study length 60 weeks) was 4.93 mg/kg/day and the TD50 (rat, strain Fischer 344, males, site: lung, lesion: alveolar/bronchiolar adenoma, dosed 58 weeks, study length 60 weeks) was 5.47 mg/kg/day. The TD50 (rat, strain Fischer 344, males, site: multiple organs, lesion: mesothelioma, malignant, dosed 58 weeks, study length 60 weeks) was 9.45 mg/kg/day, the TD50 (rat, strain Fischer 344, males, site: pharynx + tongue, lesion: squamous-cell carcinoma + squamous-cell papilloma, dosed 58 weeks, study length 60 weeks) was 8.47 mg/kg/day and the TD50 (rat, strain Fischer 344, males, site: pharynx + tongue, lesion: squamous-cell carcinoma, dosed 58 weeks, study length 60 weeks) was 26.7 mg/kg/day. It also gave a TD50 (rat, strain Fischer 344, males, site: preputial gland, lesion: adenoma + carcinoma, dosed 58 weeks, study length 60 weeks) of 3.96 mg/kg/day, a TD50 (rat, strain Fischer 344, males, site: preputial gland, lesion: adenoma, dosed 58 weeks, study length 60 weeks) of 4.94 mg/kg/day and a TD50 (rat, strain Fischer 344, males, site: skin, lesion: basal-cell adenoma + basal-cell carcinoma, dosed 58 weeks, study length 60 weeks) of 0.5 mg/kg/day. For the same compound, the TD50 (rat, strain Fischer 344, males, site: skin, lesion: basal-cell adenoma, dosed 58 weeks, study length 60 weeks) was 0.534 mg/kg/day, the TD50 (rat, strain Fischer 344, males, site: skin, lesion: basal-cell carcinoma, dosed 58 weeks, study length 60 weeks) was 8.85 mg/kg/day and the TD50 (rat, strain Fischer 344, males, site: skin, lesion: keratoacanthoma, dosed 58 weeks, study length 60 weeks) was 4.58 mg/kg/day. The TD50 (rat, strain Fischer 344, males, site: skin, lesion: sebaceous adenoma, dosed 58 weeks, study length 60 weeks) was 5.62 mg/kg/day, the TD50 (rat, strain Fischer 344, males, site: skin, lesion: squamous-cell carcinoma + squamous-cell papilloma, dosed 58 weeks, study length 60 weeks) was 1.55 mg/kg/day and the TD50 (rat, strain Fischer 344, males, site: skin, lesion: squamous-cell carcinoma, dosed 58 weeks, study length 60 weeks) was 2.8 mg/kg/day. The TD50 (rat, strain Fischer 344, males, site: skin, lesion: squamous-cell papilloma, dosed 58 weeks, study length 60 weeks) was 3.28 mg/kg/day.
In the case of `C/C1=C\C=C(\C(C)C)[C@@H](O)C/C(C)=C/CC/C(C)=C/CC1`, the carcinogen call (mouse, strain C3H/HeN, males, in feed, site: liver, lesion: hepatoma, dosed 65 weeks, study length 65 weeks) is reported as “negative (inactive)”.
